We go through 25 compounds from patent US20050054629A1, “Compounds and methods of treating cell proliferative diseases” (priority 2002, published 2005).

Molecules are shown by their SMILES. Bounds are passed on as bounds.

Data set [1] relates to HCT116 colon adenocarcinoma. Nature of the data set: Cytotoxicity assay (MTT), 6 days. Type of data set: cell-based, human. The conditions noted are these: Homo sapiens, HCT-116, 144 h, 6 days of treatment, read-out: Toxicity 6d (IC 50, μM) HCT116. An excerpt:
(§1) Four human tumoral cell lines, namely HCT116 colon adenocarcinoma, H460 lung carcinoma, MCF-7 and MDA-MB-231 breast carcinoma cell lines, and three immortalized but non tumorigenic cell lines, namely NIH3T3 mouse fibroblasts and human breast-derived MCF10-A and MRC-5 were purchased at ATCC and cultured according to their recommendations. In order to determine the cytotoxicity associated with one compound, a microculture tetrazolium assay (MTT), as described by Carmichael et al (Cancer Res, 1996) with modifications, was used. Briefly, 5.10^3 or 2.10^4 cells were seeded per well in 24-well plates 24 hours before drug addition. Cells were treated with 0, 1, 10, 17.5, 25 and 50 μM of compound solubilized in DMSO, adjusting the total volume of DMSO (Dimethylsulfoxide) to 1%. Forty-eight hours or 6 days after treatment, the medium was replaced by PBS containing 0.5 mg/ml MTT (Sigma) and cells were incubated for 3 more hours at 37° C. before solubilization of formazan crystals in 100% DMSO. Absorbance was measured using a spectrophotometer at a wavelength of 550 nm. Cell surviving fraction and 50% inhibitory concentration were calculated. All assays were performed in triplicate.

Data set [2] concerns MDA-MB-231 breast carcinoma. Nature of the data set: Cytotoxicity assay (MTT), 6 days. The note with it: Homo sapiens, MDA-MB-231, 144 h, 6 days of treatment, read-out: Toxicity 6d (IC 50, μM) MDA231. It is filed as cell-based.
Excerpt: as §1

The next data set concerns MCF-7 breast carcinoma. In words: Cytotoxicity assay (MTT), 6 days. It is filed as cell-based. The note with it: Homo sapiens, MCF7, 144 h, 6 days of treatment, read-out: Toxicity 6d (IC 50, μM) MCF7.
Excerpt: as §1

A further data set relates to H460 lung carcinoma. In words: Cytotoxicity assay (MTT), 6 days. Type of data set: cell-based. The conditions noted are these: Homo sapiens, NCI-H460, 144 h, 6 days of treatment, read-out: Toxicity 6d (IC 50, μM) H460.
Excerpt: as §1

The test system of the next data set is NIH3T3 mouse fibroblasts. Nature of the data set: Cytotoxicity assay (MTT), 6 days. It is filed as cell-based. The note with it: NIH3T3, 144 h, 6 days of treatment, read-out: Toxicity 6d (IC 50, μM) NIH3T3.
Excerpt: as §1

Turning to `O=C(O)c1cc(=O)c(OCCCCCOc2ccc(Cl)c(Cl)c2)co1` [EH6600, 5-[5-(3,4-Dichlorophenyloxy)pentyloxy]-4-oxo-4H-pyran-2-carboxylic acid], the IC50 in data set [1] is over 50 µM; in data set [2], over 25 µM; in the data set with MCF-7 breast carcinoma, 30 µM; with H460 lung carcinoma it was over 50 µM.

For the compound `C/C=C/c1oc(C(=O)O)cc(=O)c1OCCCCCOc1ccc(Cl)c(Cl)c1` [EH10501], the IC50 (in data set [1]; in data set [2]; in the data set with MCF-7 breast carcinoma; in the data set on NIH3T3 mouse fibroblasts; in the data set on H460 lung carcinoma) was over 50 µM each time.

In the case of `C/C=C/c1oc(C(=O)O)cc(=O)c1OCCCCCOc1ccccc1CCC` [EH15301, (E)-2-(Propen-1-yl)-3-[5-(2-propylphenyloxy)pentyloxy]-4-oxo-4H-pyran-6-carboxylic acid], the IC50 (in data set [1]; in data set [2]; in the data set with MCF-7 breast carcinoma; with NIH3T3 mouse fibroblasts; in the data set with H460 lung carcinoma) was over 50 µM in each case.

Take `O=C(O)c1cc(=O)c(OCCCCCOc2cccc(Cl)c2)co1` [EH15700, 5-[5-(3-Chlorophenyloxy)pentyloxy]-4-oxo-4H-pyran-2-carboxylic acid]: the IC50 in data set [1] was over 50 µM; in data set [2], 20 µM; in the data set with MCF-7 breast carcinoma, over 50 µM; in the data set with H460 lung carcinoma it was over 50 µM.

In the case of `C/C=C/c1oc(C(=O)O)cc(=O)c1OCCCCCOc1ccc(Cl)cc1` [EH17401, (E)-3-[5-(4-Chlorophenyloxy)pentyloxy]-2-(propen-1-yl)-4-oxo-4H-pyran-6-carboxylic acid], the IC50 (in data set [1]; in data set [2]; with MCF-7 breast carcinoma; in the data set with NIH3T3 mouse fibroblasts; in the data set on H460 lung carcinoma) was over 50 µM each time.

With `O=C(O)c1cc(=O)c(OCCCCCOc2ccc(Cl)cc2)co1` [EH17600, 5-[5-(4-Chlorophenyloxy)pentyloxy]-4-oxo-4H-pyran-2-carboxylic acid], the IC50 in data set [1] was over 50 µM; in data set [2], over 25 µM; with MCF-7 breast carcinoma it was 17.5 µM; in the data set on H460 lung carcinoma, over 50 µM.

With `C/C=C/c1oc(C(=O)O)cc(=O)c1OCCCCCOc1cccc(Cl)c1` [EH18401, (E)-3-[5-(3-Chlorophenyloxy)pentyloxy]-2-(propen-1-yl)-4-oxo-4H-pyran-6-carboxylic acid], the IC50 (in data set [1]; in data set [2]; in the data set with MCF-7 breast carcinoma; with NIH3T3 mouse fibroblasts; in the data set on H460 lung carcinoma) was over 50 µM each time.

For the compound `O=C(O)c1cc(=O)c(OCCCCOc2ccc(Cl)c(Cl)c2)co1` [EH20700, 5-[4-(3,4-Dichlorophenyloxy)butyloxy] oxo-4H-pyran-2-carboxylic acid], the IC50 (in data set [1]; in data set [2]; in the data set on MCF-7 breast carcinoma; in the data set with H460 lung carcinoma) was over 50 µM throughout.

In the case of `CCCc1ccccc1OCCCCCOc1coc(C(=O)O)cc1=O` [EH26900, 5-[5-(2-Propylphenyloxy)pentyloxy]-4-oxo-4H-pyran-2-carboxylic acid], the IC50 (in data set [1]; in data set [2]; in the data set with MCF-7 breast carcinoma; with H460 lung carcinoma) was over 50 µM each time.

As to `CCCc1c(OCCCCCOc2coc(C(=O)O)cc2=O)ccc(Cl)c1Cl` [EH27900], the IC50 in data set [1] is over 50 µM; in data set [2] it was over 25 µM; with MCF-7 breast carcinoma, 40 µM; with H460 lung carcinoma, over 50 µM.

As to `O=C(OCc1cc(=O)c(OCCCCCn2ccc3ccccc32)co1)c1ccc(Cl)cc1` [EHT 0078, 4-Chloro-benzoic acid 5-(5-indol-1-yl-pentyloxy)-4-oxo-4H-pyran-2-ylmethyl ester], the melting point was in the range of 215 to 220 °C.

On to `CCNC(=O)OCc1cc(=O)c(OCCCCCn2ccc3ccccc32)co1` [EHT 1120, Ethyl-carbamic acid 5-(5-indol-1-yl-pentyloxy)-4-oxo-4H-pyran-2-ylmethyl ester], for which the melting point lay in the range of 81 to 83 °C.

As to `O=C(Nc1ccc(Cl)cc1)OCc1cc(=O)c(OCCCCCn2ccc3ccccc32)co1` [EHT 2232, (4-Chloro-phenyl)-carbamic acid 5-(5-indol-1-yl-pentyloxy)-4-oxo-4H-pyran-2-ylmethyl ester], the melting point was 170 to 171 °C.

For `O=C(OCc1cc(=O)c(OCCCCCn2ccc3ccccc32)co1)C1CCCCC1` [EHT 2253, Cyclohexanecarboxylic acid 5-(5-indol-1-yl-pentyloxy)-4-oxo-4H-pyran-2-ylmethyl ester], the melting point fell in the range of 62 to 66 °C.

`CCCc1c(Cl)cc(Cl)cc1OCCCCCOc1coc(CO)cc1=O` [EHT 2991] registered a melting point of 77 to 79 °C.

Regarding `C/C=C/c1oc(CO)cc(=O)c1OCCCCCOc1ccc(C#N)c(F)c1` [EHT 4112, (E)-2-Fluoro-4-[5-(6-hydroxymethyl-4-oxo-2-propenyl-4H-pyran-3-yloxy)-pentyloxy]-benzonitrile], the melting point was 123 to 125 °C.

As for `O=C(OCc1cc(=O)c(OCCCCCn2ccc3ccccc32)co1)c1ccoc1` [EHT 4167, Furan-3-carboxylic acid 5-(5-indol-1-yl-pentyloxy)-4-oxo-4H-pyran-2-ylmethyl ester], the melting point was 103 to 105 °C (dec.).

As to `O=C(Nc1ccccc1)OCc1cc(=O)c(OCCCCCn2ccc3ccccc32)co1` [EHT 4902, Phenyl-carbamic acid 5-(5-indol-1-yl-pentyloxy)-4-oxo-4H-pyran-2-ylmethyl ester], the melting point was 150 °C (dec.).

Consider `C/C=C/c1oc(CO)cc(=O)c1OCCCCCOc1cc(C(F)(F)F)cc(C(F)(F)F)c1` [EHT 5403, (E)-3-[5-(3,5-Bis-trifluoromethyl-phenoxy)-pentyloxy]-6-hydroxymethyl-2-propenyl-4H-pyran-4-one], for which the melting point fell in the range of 90 to 92 °C.

`C=CCc1cc(Cl)ccc1OCCCCCOc1coc(CO)cc1=O` [EHT 5431, 5-[5-(2-Allyl-4-chloro-phenoxy)-pentyloxy]-2-hydroxymethyl-4H-pyran-4-one]: the melting point is 98 to 100 °C.

`CCCc1cc(Cl)ccc1OCCCCCOc1coc(CO)cc1=O` [EHT 6152, 5-[5-(4-Chloro-2-propyl-phenoxy)pentyloxy]-2-hydroxymethyl-4H-pyran-4-one]: the melting point fell in the range of 92 to 94 °C.

With `O=C(OCc1cc(=O)c(OCCCCCn2ccc3ccccc32)co1)c1ccccc1` [EHT 6517, Benzoic acid 5-(5-indol-1-yl-pentyloxy)-4-oxo-4H-pyran-2-ylmethyl ester], the melting point was in the range of 71 to 73 °C.

In the case of `C=CCc1c(Cl)cc(Cl)cc1OCCCCCOc1coc(CO)cc1=O` [EHT 6978, 5-[5-(2-Allyl-3,5-dichloro-phenoxy)-pentyloxy]-2-hydroxymethyl-4H-pyran-4-one], the melting point fell in the range of 59 to 61 °C.

Compound `C/C=C/c1oc(CO)cc(=O)c1OCCCCCOc1ccc(F)c(F)c1` [EHT 8307] yielded a melting point of 86 to 87 °C.

For the compound `C/C=C/c1oc(CO)cc(=O)c1OCCCCCOc1cc(Cl)cc(Cl)c1CCC` [EHT 9916, (E)-3-[5-(3,5-Dichloro-2-propyl-phenoxy)-pentyloxy]-6-hydroxymethyl-2-propenyl-4H-pyran-4-one], the melting point was in the range of 91 to 93 °C.
